Measured values published in patent US20100048699A1, “CHEMICAL COMPOUNDS” (SYNGENTA CROP PROTECTION, INC., priority 2006, published 2010).

Experiments:
Myzus persicae [1] = assay: Myzus persicae (green peach aphid) sunflower leaf disc spray test; conditions: foliar, 144 h, read-out: control of Myzus persicae
Myzus persicae [2] = assay: Myzus persicae (green peach aphid) pea seedling root uptake test; conditions: 144 h, read-out: control of Myzus persicae
Tetranychus urticae = Tetranychus urticae (two-spotted spider mite) bean leaf disc spray test; conditions: foliar, 192 h, read-out: control of Tetranychus urticae

O=C(OCCNC(=S)NC1CCc2c(F)cccc21)c1ccccc1C(F)(F)F (stereo not drawn) [Compound 11.023]
≥ 80%: pest or weed control at 200 ppm (Myzus persicae [1]) | pest or weed control at 24 ppm (Myzus persicae [2]) | pest or weed control at 200 ppm (Tetranychus urticae)

O=C(OCCNC(=S)NC1CCc2c(F)cccc21)C1Cc2ccccc2O1 (stereo not drawn) [Compound 11.055]
≥ 80%: pest or weed control at 200 ppm (Myzus persicae [1]) | pest or weed control at 24 ppm (Myzus persicae [2]) | pest or weed control at 200 ppm (Tetranychus urticae)

Cc1c(C(=O)OCCNC(=S)NC2CCc3c(F)cccc32)ncn1C(C)(C)C (stereo not drawn) [Compound 11.070]
≥ 80%: pest or weed control at 200 ppm (Myzus persicae [1]) | pest or weed control at 24 ppm (Myzus persicae [2]) | pest or weed control at 200 ppm (Tetranychus urticae)

COC(=O)OCCNC(=S)NC1CCc2c(F)cccc21 (stereo not drawn) [Compound 3.038, carbonic acid 2-[3(4-fluoro-indan-1-yl)-thioureido]-ethyl methylester]
≥ 80%: pest or weed control at 200 ppm (Myzus persicae [1]) | pest or weed control at 24 ppm (Myzus persicae [2]) | pest or weed control at 200 ppm (Tetranychus urticae)

O=C(Cc1ccc(F)cc1)OCCNC(=S)NC1CCc2c(F)cccc21 (stereo not drawn) [Compound 11.063]
≥ 80%: pest or weed control at 200 ppm (Myzus persicae [1]) | pest or weed control at 24 ppm (Myzus persicae [2]) | pest or weed control at 200 ppm (Tetranychus urticae)

O=C(OCCNC(=S)NC1CCc2c(F)cccc21)c1ccc(F)cc1F (stereo not drawn) [Compound 11.014]
≥ 80%: pest or weed control at 200 ppm (Myzus persicae [1]) | pest or weed control at 24 ppm (Myzus persicae [2]) | pest or weed control at 200 ppm (Tetranychus urticae)

O=C(OCCNC(=S)NC1CCc2c(F)cccc21)c1cc(F)ccc1F (stereo not drawn) [Compound 11.013]
≥ 80%: pest or weed control at 200 ppm (Myzus persicae [1]) | pest or weed control at 24 ppm (Myzus persicae [2]) | pest or weed control at 200 ppm (Tetranychus urticae)

COc1ccc(C(=O)OCCNC(=S)NC2CCc3c(F)cccc32)cc1 (stereo not drawn) [Compound 11.009]
≥ 80%: pest or weed control at 200 ppm (Myzus persicae [1]) | pest or weed control at 24 ppm (Myzus persicae [2]) | pest or weed control at 200 ppm (Tetranychus urticae)

O=C(OCCNC(=S)NC1CCc2c(F)cccc21)c1ccccc1Cl (stereo not drawn) [Compound 11.012]
≥ 80%: pest or weed control at 200 ppm (Myzus persicae [1]) | pest or weed control at 24 ppm (Myzus persicae [2]) | pest or weed control at 200 ppm (Tetranychus urticae)

C/C(=C\c1ccccc1)C(=O)OCCNC(=S)NC1CCc2c(F)cccc21 (stereo not drawn) [Compound 11.053]
≥ 80%: pest or weed control at 200 ppm (Myzus persicae [1]) | pest or weed control at 24 ppm (Myzus persicae [2]) | pest or weed control at 200 ppm (Tetranychus urticae)

N#Cc1ccc(C(=O)OCCNC(=S)NC2CCc3c(F)cccc32)cc1 (stereo not drawn) [Compound 11.005]
≥ 80%: pest or weed control at 200 ppm (Myzus persicae [1]) | pest or weed control at 24 ppm (Myzus persicae [2]) | pest or weed control at 200 ppm (Tetranychus urticae)

O=C(NCCOC(=O)c1cnn(-c2ccccc2)c1C(F)(F)F)NC1CCc2c(F)cccc21 (stereo not drawn) [Compound 11.059]
≥ 80%: pest or weed control at 200 ppm (Myzus persicae [1]) | pest or weed control at 24 ppm (Myzus persicae [2]) | pest or weed control at 200 ppm (Tetranychus urticae)

COc1ccc(CC(=O)OCCNC(=S)NC2CCc3c(F)cccc32)cc1OC (stereo not drawn) [Compound 11.028]
≥ 80%: pest or weed control at 200 ppm (Myzus persicae [1]) | pest or weed control at 24 ppm (Myzus persicae [2]) | pest or weed control at 200 ppm (Tetranychus urticae)

COc1ccc(CC(=O)OCCNC(=S)NC2CCc3c(F)cccc32)cc1 (stereo not drawn) [Compound 11.016]
≥ 80%: pest or weed control at 200 ppm (Myzus persicae [1]) | pest or weed control at 24 ppm (Myzus persicae [2]) | pest or weed control at 200 ppm (Tetranychus urticae)

O=C(OCCNC(=S)NC1CCc2c(F)cccc21)c1ccc(C(F)(F)F)cc1 (stereo not drawn) [Compound 11.024]
≥ 80%: pest or weed control at 200 ppm (Myzus persicae [1]) | pest or weed control at 24 ppm (Myzus persicae [2]) | pest or weed control at 200 ppm (Tetranychus urticae)

O=C(OCCNC(=S)NC1CCc2c(F)cccc21)c1ccc(Cl)cc1 (stereo not drawn) [Compound 11.010]
≥ 80%: pest or weed control at 200 ppm (Myzus persicae [1]) | pest or weed control at 24 ppm (Myzus persicae [2]) | pest or weed control at 200 ppm (Tetranychus urticae)

O=C(OCCNC(=S)NC1CCc2c(F)cccc21)c1cccc(Cl)c1 (stereo not drawn) [Compound 11.011]
≥ 80%: pest or weed control at 200 ppm (Myzus persicae [1]) | pest or weed control at 24 ppm (Myzus persicae [2]) | pest or weed control at 200 ppm (Tetranychus urticae)

O=C(OCCNC(=S)NC1CCc2c(F)cccc21)c1ccc(F)cc1 (stereo not drawn) [Compound 11.003]
≥ 80%: pest or weed control at 200 ppm (Myzus persicae [1]) | pest or weed control at 24 ppm (Myzus persicae [2]) | pest or weed control at 200 ppm (Tetranychus urticae)

COc1ccccc1C(=O)OCCNC(=S)NC1CCc2c(F)cccc21 (stereo not drawn) [Compound 11.007]
≥ 80%: pest or weed control at 200 ppm (Myzus persicae [1]) | pest or weed control at 24 ppm (Myzus persicae [2]) | pest or weed control at 200 ppm (Tetranychus urticae)

CCCC(C(=O)OCCNC(=S)NC1CCc2c(F)cccc21)c1ccc(Cl)cc1Cl (stereo not drawn) [Compound 11.040]
≥ 80%: pest or weed control at 200 ppm (Myzus persicae [1]) | pest or weed control at 24 ppm (Myzus persicae [2]) | pest or weed control at 200 ppm (Tetranychus urticae)

O=C(Cc1ccc(Cl)cc1)OCCNC(=S)NC1CCc2c(F)cccc21 (stereo not drawn) [Compound 11.018]
≥ 80%: pest or weed control at 200 ppm (Myzus persicae [1]) | pest or weed control at 24 ppm (Myzus persicae [2]) | pest or weed control at 200 ppm (Tetranychus urticae)

O=C(OCCNC(=S)NC1CCc2c(F)cccc21)OCc1ccc([N+](=O)[O-])cc1 (stereo not drawn) [Compound 11.030]
≥ 80%: pest or weed control at 200 ppm (Myzus persicae [1]) | pest or weed control at 24 ppm (Myzus persicae [2]) | pest or weed control at 200 ppm (Tetranychus urticae)

Cc1cc(C(=O)OCCNC(=S)NC2CCc3c(F)cccc32)c(C(F)(F)F)o1 (stereo not drawn) [Compound 11.044]
≥ 80%: pest or weed control at 200 ppm (Myzus persicae [1]) | pest or weed control at 24 ppm (Myzus persicae [2]) | pest or weed control at 200 ppm (Tetranychus urticae)

O=C(/C=C/c1cccc(C(F)(F)F)c1)OCCNC(=S)NC1CCc2c(F)cccc21 (stereo not drawn) [Compound 11.048]
≥ 80%: pest or weed control at 200 ppm (Myzus persicae [1]) | pest or weed control at 24 ppm (Myzus persicae [2]) | pest or weed control at 200 ppm (Tetranychus urticae)

Cc1ccccc1CC(=O)OCCNC(=S)NC1CCc2c(F)cccc21 (stereo not drawn) [Compound 11.060]
≥ 80%: pest or weed control at 200 ppm (Myzus persicae [1]) | pest or weed control at 24 ppm (Myzus persicae [2]) | pest or weed control at 200 ppm (Tetranychus urticae)

COc1cc(C(=O)OCCNC(=S)NC2CCc3c(F)cccc32)cc(Cl)n1 (stereo not drawn) [Compound 11.047]
≥ 80%: pest or weed control at 200 ppm (Myzus persicae [1]) | pest or weed control at 24 ppm (Myzus persicae [2]) | pest or weed control at 200 ppm (Tetranychus urticae)

O=C(Cc1cccc(C(F)(F)F)c1)OCCNC(=S)NC1CCc2c(F)cccc21 (stereo not drawn) [Compound 11.065]
≥ 80%: pest or weed control at 200 ppm (Myzus persicae [1]) | pest or weed control at 24 ppm (Myzus persicae [2]) | pest or weed control at 200 ppm (Tetranychus urticae)

CCC(Oc1ccccc1)C(=O)OCCNC(=S)NC1CCc2c(F)cccc21 (stereo not drawn) [Compound 11.051]
≥ 80%: pest or weed control at 200 ppm (Myzus persicae [1]) | pest or weed control at 24 ppm (Myzus persicae [2]) | pest or weed control at 200 ppm (Tetranychus urticae)

O=C(OCCNC(=S)NC1CCc2c(F)cccc21)c1ccc(Cl)c([N+](=O)[O-])c1 (stereo not drawn) [Compound 11.058]
≥ 80%: pest or weed control at 200 ppm (Myzus persicae [1]) | pest or weed control at 24 ppm (Myzus persicae [2]) | pest or weed control at 200 ppm (Tetranychus urticae)
